From the supplement of paper PMC11061612

Experiments:
Test in all cases: combination Emax (second highest fraction inhibited in the dose matrix, 72 h); higher = more inhibition; extreme values may be limits of the assay
HCC38 (Breast Carcinoma) = system: HCC38 (Breast Carcinoma)
How it was run: (§1)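 After 24 hours at 37°C and 5% CO2 in 1536-well plates, cells in DMEM/F12 or RPMI plus 10% FBS received two-drug dose matrices for 72 hours. Viability came from CellTiter-Glo 2.0 luminescence and was scaled as inhibition, anchored at 0 by vehicle wells and at 1 by blank wells. Combination Emax is taken as the second-highest inhibition in the matrix, and Bliss excess as the observed combination effect less EA + EB − EA·EB, with EA and EB the single-agent effects.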

[1] = system: ETK-1 (Biliary Tract Carcinoma)
How it was run: as §1

H4 (Low Grade Glioma) = system: H4 (Low Grade Glioma)
How it was run: as §1

CS1 (Chondrosarcoma) = system: CS1 (Chondrosarcoma)
How it was run: as §1

[2] = system: HCC-827 (Lung Adenocarcinoma)
How it was run: as §1

MCF7 (Breast Carcinoma) = system: MCF7 (Breast Carcinoma)
How it was run: as §1

[3] = system: JHH-6 (Hepatocellular Carcinoma)
How it was run: as §1

[4] = system: D-283MED (Other Solid Carcinomas)
How it was run: as §1

[5] = system: SW948 (Colorectal Carcinoma)
How it was run: as §1

[6] = system: TYK-nu (Ovarian Carcinoma)
How it was run: as §1

[7] = system: SK-LMS-1 (Other Solid Carcinomas)
How it was run: as §1

[8] = system: MEG-01 (Chronic Myelogenous Leukemia)
How it was run: as §1

[9] = system: SK-UT-1 (Other Solid Carcinomas)
How it was run: as §1

EW-22 (Ewing's Sarcoma) = system: EW-22 (Ewing's Sarcoma)
How it was run: as §1

[10] = system: WSU-DLCL2 (B-Cell Non-Hodgkin's Lymphoma)
How it was run: as §1

A172 (Glioblastoma) = system: A172 (Glioblastoma)
How it was run: as §1

[11] = system: DOK (Oral Cavity Carcinoma)
How it was run: as §1

SK-MEL-1 (Melanoma) = system: SK-MEL-1 (Melanoma)
How it was run: as §1

[12] = system: SW48 (Colorectal Carcinoma)
How it was run: as §1

SMILES | combination Emax (HCC38 (Breast Carcinoma)) | combination Emax [1] | combination Emax (H4 (Low Grade Glioma)) | combination Emax (CS1 (Chondrosarcoma)) | combination Emax [2] | combination Emax (MCF7 (Breast Carcinoma)) | combination Emax [3] | combination Emax [4] | combination Emax [5] | combination Emax [6] | combination Emax [7] | combination Emax [8] | combination Emax [9] | combination Emax (EW-22 (Ewing's Sarcoma)) | combination Emax [10] | combination Emax (A172 (Glioblastoma)) | combination Emax [11] | combination Emax (SK-MEL-1 (Melanoma)) | combination Emax [12]
CN(C)CCCOc1ccc(-c2ccc3ncc4c(c3c2)n(C2CCOCC2)c(=O)n4C)cn1 [AZD0156] + O=C(c1cc(Cc2n[nH]c(=O)c3ccccc23)ccc1F)N1CCN(C(=O)C2CC2)CC1 [Olaparib] (first compound max 3 µM, partner max 3 µM) | 0.266 | 0.329 | 0.536 | 0.296 | 0.325 | 0.324 | 0.141 | 0.557 | 0.252 | 0.354 | 0.392 | 0.156 | 0.257 | 0.872 | 0.89 | 0.323 | 0.361 | 0.0982 | 
C=CCn1c(=O)c2cnc(Nc3ccc(N4CCN(C)CC4)cc3)nc2n1-c1cccc(C(C)(C)O)n1 [AZD1775] + C1CN(CCC1(C(=O)N[C@@H](CCO)C2=CC=C(C=C2)Cl)N)C3=NC=NC4=C3C=CN4 [Capivasertib] (first compound max 3 µM, partner max 3 µM) | 0.748 | 0.664 | 0.942 | 0.63 | 0.655 | 0.706 | 0.508 | 0.904 | 0.799 | 0.695 | 0.635 | 0.965 | 0.817 | 0.786 | 1 | 0.623 | 0.754 | 0.336 | 
COc1nnc2ccc(N3CCC(c4ccc(OCCN5CCN(C)C(=O)[C@H]5C)cc4)CC3)nn12 [AZD5153] + C=CCn1c(=O)c2cnc(Nc3ccc(N4CCN(C)CC4)cc3)nc2n1-c1cccc(C(C)(C)O)n1 [AZD1775] (first compound max 1 µM, partner max 1 µM) | 0.433 | 0.576 | 0.884 | 0.553 | 0.583 | 0.684 | 0.53 | 0.988 | 0.655 | 0.772 | 0.592 | 0.945 | 0.787 | 0.781 | 0.996 | 0.543 | 0.658 | 0.568 | 0.66
COc1nnc2ccc(N3CCC(c4ccc(OCCN5CCN(C)C(=O)[C@H]5C)cc4)CC3)nn12 [AZD5153] + CC1(C)CCC(CN2CCN(c3ccc(C(=O)NS(=O)(=O)c4ccc(NCC5CCOCC5)c([N+](=O)[O-])c4)c(Oc4cnc5[nH]ccc5c4)c3)CC2)=C(c2ccc(Cl)cc2)C1 [Venetoclax] (first compound max 1 µM, 7x7, partner max 1 µM) | 0.458 | 0.445 | 0.677 | 0.408 | 0.348 | 0.669 | 0.463 | 0.835 | 0.513 | 0.571 | 0.507 | 0.889 | 0.543 | 0.6 | 1 | 0.479 | 0.431 | 0.625 | 0.631
COc1nnc2ccc(N3CCC(c4ccc(OCCN5CCN(C)C(=O)[C@H]5C)cc4)CC3)nn12 [AZD5153] + CCN(CCO)CCCOc1ccc2c(Nc3cc(CC(=O)Nc4cccc(F)c4)[nH]n3)ncnc2c1 [AZD2811] (first compound max 1 µM, 7x7, partner max 1 µM) | 0.426 | 0.463 | 0.668 | 0.46 | 0.43 | 0.653 | 0.552 | 0.9 | 0.65 | 0.657 | 0.548 | 0.895 | 0.658 | 0.787 | 0.942 | 0.574 | 0.544 | 0.556 | 0.912
COc1nnc2ccc(N3CCC(c4ccc(OCCN5CCN(C)C(=O)[C@H]5C)cc4)CC3)nn12 [AZD5153] + C[C@@H]1COCCN1C2=NC(=NC(=C2)C3(CC3)[S@](=N)(=O)C)C4=C5C=CNC5=NC=C4 [AZD6738] (first compound max 1 µM, 7x7, partner max 10 µM) | 0.486 | 0.717 | 0.796 | 0.661 | 0.578 | 0.747 | 0.705 | 0.995 | 0.675 | 0.803 | 0.61 | 0.966 | 0.925 | 0.927 | 1 | 0.739 | 0.569 | 0.689 | 0.752
COc1nnc2ccc(N3CCC(c4ccc(OCCN5CCN(C)C(=O)[C@H]5C)cc4)CC3)nn12 [AZD5153] + Cc1c2c(nn1C)CSCc1cc(n(C)n1)CSc1cc(c3ccccc3c1)OCCCc1c(C(=O)O)n(C)c3c-2c(Cl)ccc13 [AZD5991] (first compound max 1 µM, 7x7, partner max 1 µM) | 0.479 | 0.513 | 0.888 | 0.38 | 0.366 | 0.769 | 0.436 | 0.979 | 0.573 | 0.646 | 0.5 | 0.961 | 0.653 | 0.888 | 1 | 0.485 | 0.914 | 0.679 | 0.711
COc1nnc2ccc(N3CCC(c4ccc(OCCN5CCN(C)C(=O)[C@H]5C)cc4)CC3)nn12 [AZD5153] + Cn1cnc2c(F)c(Nc3ccc(Br)cc3Cl)c(C(=O)NOCCO)cc21 [Selumetinib] (first compound max 1 µM, 7x7, partner max 10 µM) | 0.342 | 0.463 | 0.699 | 0.469 | 0.375 | 0.704 | 0.507 | 0.849 | 0.752 | 0.755 | 0.666 | 0.988 | 0.486 | 0.517 | 0.963 | 0.511 | 0.648 | 0.983 | 0.786
NC1(C(=O)N[C@@H](CCO)c2ccc(Cl)cc2)CCN(c2ncnc3[nH]ccc23)CC1 [Capivasertib] + CC(=O)c1c(C)c2cnc(Nc3ccc(N4CCNCC4)cn3)nc2n(C2CCCC2)c1=O [Palbociclib] (first compound max 10 µM, 7x7, partner max 10 µM) | 0.209 | 0.419 | 0.751 | 0.442 | 0.344 | 0.676 | 0.501 | 0.634 | 0.57 | 0.505 | 0.433 | 0.468 | 0.458 | 0.575 | 1 | 0.671 | 0.596 | 0.141 | 0.63
NC1(C(=O)N[C@@H](CCO)c2ccc(Cl)cc2)CCN(c2ncnc3[nH]ccc23)CC1 [Capivasertib] + CC(C)n1c(=O)n(C)c2cnc3cc(F)c(-c4ccc(OCCCN5CCCCC5)nc4)cc3c21 [AZD1390] (first compound max 10 µM, 7x7, partner max 0.3 µM) | 0.352 | 0.331 | 0.515 | 0.298 | 0.322 | 0.459 | 0.309 | 0.475 | 0.575 | 0.309 | 0.324 | 0.256 | 0.354 | 0.437 | 1 | 0.226 | 0.5 | 0.226 | 0.497
NC1(C(=O)N[C@@H](CCO)c2ccc(Cl)cc2)CCN(c2ncnc3[nH]ccc23)CC1 [Capivasertib] + CCN(CCO)CCCOc1ccc2c(Nc3cc(CC(=O)Nc4cccc(F)c4)[nH]n3)ncnc2c1 [AZD2811] (first compound max 10 µM, 7x7, partner max 1 µM) | 0.359 | 0.381 | 0.58 | 0.417 | 0.35 | 0.639 | 0.4 | 0.737 | 0.769 | 0.357 | 0.457 | 0.638 | 0.522 | 0.78 | 1 | 0.52 | 0.592 | 0.292 | 0.983
CS(=O)(=O)CCNCc1ccc(-c2ccc3ncnc(Nc4ccc(OCc5cccc(F)c5)c(Cl)c4)c3c2)o1 [Lapatinib] + Cn1cnc2c(F)c(Nc3ccc(Br)cc3Cl)c(C(=O)NOCCO)cc21 [Selumetinib] (first compound max 10 µM, 7x7, partner max 10 µM) | 0.214 |  | 0.27 | 0.554 |  |  |  | 0.935 | 0.774 |  | 0.402 | 0.644 | 0.501 | 0.242 | 0.472 |  | 0.933 | 0.838 | 0.802
CS(=O)(=O)CCNCc1ccc(-c2ccc3ncnc(Nc4ccc(OCc5cccc(F)c5)c(Cl)c4)c3c2)o1 [Lapatinib] + NC1(c2ccc(-c3nc4ccn5c(=O)[nH]nc5c4cc3-c3ccccc3)cc2)CCC1 [MK-2206] (first compound max 10 µM, 7x7, partner max 10 µM) | 0.503 | 0.947 | 0.883 | 0.765 |  | 0.953 |  | 0.96 | 0.655 | 0.894 | 0.927 | 0.904 | 0.636 | 0.868 | 0.99 |  | 0.935 | 0.888 | 0.847
Cc1nc(-c2cn3c(n2)-c2ccc(-c4cnn(C(C)(C)C(N)=O)c4)cc2OCC3)n(C(C)C)n1 [Taselisib] + O=C(Nc1ccc2[nH]nc(-c3ccncc3)c2c1)[C@@H]1CCN(CC(=O)N2CCN(c3ccc(-c4ncccn4)cc3)CC2)C1 [SCH772984] (first compound max 10 µM, 7x7, partner max 5 µM) | 0.355 |  | 0.68 | 0.744 |  |  |  | 0.775 | 0.964 |  | 0.924 | 0.954 | 0.485 | 0.719 | 0.961 |  | 1 | 0.893 | 0.942
